Test results reported in article PMC11858653, “Design, Synthesis and Bioactive Evaluation of Topo I/c-MYC Dual Inhibitors to Inhibit Oral Cancer via Regulating the PI3K/AKT/NF-κB Signaling Pathway” (Molecules, 2025).
Entries after “also recorded” stand apart in the source; their conditions may differ.

What was measured:
NCI-H460 = test: MTT antiproliferative assay, NCI-H460; type: cell-based, human; settings: mean ± SD
Method: (§1) Having evaluated their Topo I inhibitory activity, the antiproliferative activity of the target compounds against some common human cancer cell lines (NCI-H460, A549, ACHN, Cal27 and MGC-803) and one normal cell line (SV-HUC-1) was tested via an MTT assay. TPT, the first Topo I inhibitor approved in clinics, and cisplatin (CDDP), a commonly selected anticancer drug for treating head and neck malignancies, were used as the positive controls.
(§2) Human oral cancer Cal27 cells were seeded in 96-well plates and incubated overnight in 180 μL of medium containing 10% Fetal Bovine Serum (Gibco, San Francisco, CA, USA). […] Then, 10 μL of 5 mg/mL MTT solution was added to each well and incubated at 37 °C for 4 h. After 4 h of incubation at 37 °C, the MTT-containing medium was removed and DMSO was added to each well and the absorbance at 570 nm and 630 nm was measured using a microplate reader (CYTATION 3, Burton, Westwood, NJ, USA). Survival/% = (mean OD of experimental group/mean OD of control group) × 100%. Each test was repeated at least three times.

A549 = test: MTT antiproliferative assay, A549; type: cell-based, human; settings: mean ± SD
Method: as §1, §2

ACHN = test: MTT antiproliferative assay, ACHN; type: cell-based, human; settings: 48 h, mean ± SD
Method: as §1, §2

Cal27 = test: MTT antiproliferative assay, Cal27; type: cell-based, human; settings: mean ± SD
Method: as §1, §2

MGC-803 = test: MTT antiproliferative assay, MGC-803; type: cell-based, human; settings: mean ± SD
Method: as §1, §2

SV-HUC-1 = test: MTT assay, normal cell line SV-HUC-1; type: cell-based; settings: mean ± SD
Method: as §1, §2

Topo I = target: T1, Topo I (Homo sapiens, UniProt P11387); test: Topo I inhibitory activity, agarose gel electrophoresis (pBR322); type: biochemical; settings: 20 μM
T1 sequence (P11387 1-765): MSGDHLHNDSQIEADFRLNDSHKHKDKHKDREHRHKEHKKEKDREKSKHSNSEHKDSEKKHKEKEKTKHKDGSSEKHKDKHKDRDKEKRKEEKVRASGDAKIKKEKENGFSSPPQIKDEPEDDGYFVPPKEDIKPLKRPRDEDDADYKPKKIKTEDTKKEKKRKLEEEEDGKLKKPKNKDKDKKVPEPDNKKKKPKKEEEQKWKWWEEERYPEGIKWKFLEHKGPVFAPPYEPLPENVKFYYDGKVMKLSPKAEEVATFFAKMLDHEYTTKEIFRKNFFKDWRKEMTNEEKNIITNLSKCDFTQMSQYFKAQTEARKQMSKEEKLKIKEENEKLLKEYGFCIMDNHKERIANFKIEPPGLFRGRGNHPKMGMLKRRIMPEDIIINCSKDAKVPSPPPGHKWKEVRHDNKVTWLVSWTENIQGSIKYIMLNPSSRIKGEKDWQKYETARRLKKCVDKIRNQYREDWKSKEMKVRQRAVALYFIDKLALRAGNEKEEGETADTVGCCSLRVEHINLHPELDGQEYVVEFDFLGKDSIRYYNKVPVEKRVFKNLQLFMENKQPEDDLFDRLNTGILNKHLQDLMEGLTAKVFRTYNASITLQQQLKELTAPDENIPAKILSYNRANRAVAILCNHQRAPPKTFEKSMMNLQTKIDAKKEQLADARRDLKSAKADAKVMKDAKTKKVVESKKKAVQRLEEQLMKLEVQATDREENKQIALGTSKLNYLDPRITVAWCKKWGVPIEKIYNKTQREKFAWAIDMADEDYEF
Method: In this assay, 250 ng of pBR322 plasmid DNA, different concentrations of the compounds to be tested, 0.1% BSA 1 μL, 10× Topo I buffer, Topo I and add 1× TAE buffer were mixed to a final volume of 20 μL. The reaction was carried out for 30 min at 37 °C in a water bath. After the reaction was terminated, 4 μL of each of the 6× DNA Sampling Buffers were added to the gel. The pBR322 plasmid DNA alone was used as a negative control, and camptothecin was used as a positive control. Finally, the samples were loaded onto the gels and electrophoresed for about 1.5 h. After electrophoresis, the gel blocks were incubated in 1 mg/L ethidium bromide (EB) for 30 min and then visualized on the gel system.

SMILES	IC50 (NCI-H460; Homo sapiens, NCI-H460, 48 h)	IC50 (A549; Homo sapiens, A549, 48 h)	IC50 (ACHN; Homo sapiens, ACHN)	IC50 (Cal27; Homo sapiens, CAL-27, 48 h)	IC50 (MGC-803; Homo sapiens, MGC-803, 48 h)	IC50 (SV-HUC-1; SV-HUC1, 48 h)	Topo I inhibitory activity (in words) (Topo I)	nicked DNA in the lane (DNA breakage) (Topo I)	IC50 (NCI-H460; 48 h)	IC50 (A549; 48 h)	IC50 (ACHN)	IC50 (Cal27; 48 h)	IC50 (MGC-803; 48 h)	IC50 (SV-HUC-1; 48 h)
Cc1cc(C)c2c(n1)S(=O)(=O)c1c-2nc(NCCN2CCOCC2)c2ccccc12 [7bd, 7,9-Dimethyl-5-((2-morpholinoethyl)amino)pyrido[3′,2′:4,5]thieno[3,2-c]isoquinoline 11,11-dioxide]	> 100 µM	> 100 µM	> 100 µM	> 100 µM	> 100 µM	> 100 µM	weak Topo I activity	–	–	–	–	–	–	–
CN(C)CCCNc1nc2c(c3ccccc13)S(=O)(=O)c1ncccc1-2 [7af, 5-((3-(Dimethylamino)propyl)amino)pyrido[3′,2′:4,5] thieno[3,2-c]isoquinoline 11,11-dioxide]	64.5 ± 2.88 µM	13.8 ± 2.53 µM	14.7 ± 0.15 µM	10.6 ± 0.96 µM	9.84 ± 1.32 µM	> 100 µM	–	nicked DNA could be clearly observed	–	–	–	–	–	–
Cc1cc(-c2ccccc2)nc2c1-c1nc(NCCCN3CCCC3)c3ccccc3c1S2(=O)=O [7ch, 7-Methyl-9-phenyl-5-((3-(pyrrolidin-1-yl)propyl)-amino)pyrido[3′,2′:4,5]thieno[3,2-c]isoquinoline 11,11-dioxide]	–	–	–	–	–	–	–	nicked DNA could be clearly observed	> 100 µM	> 100 µM	> 100 µM	> 100 µM	> 100 µM	49.6 ± 3.27 µM
CCN(CC)CCCNc1nc2c(c3ccccc13)S(=O)(=O)c1nc(-c3ccccc3)cc(C)c1-2 [7cg, 5-((3-(Diethylamino)propyl)amino)-7-methyl-9-phenylpyrido[3′,2′:4,5]thieno[3,2-c]isoquinoline 11,11-dioxide]	–	–	–	–	–	–	–	nicked DNA could be clearly observed	16.6 ± 1.44 µM	27.1 ± 2.25 µM	15.4 ± 3.65 µM	17.7 ± 3.96 µM	8.22 ± 2.75 µM	15.6 ± 3.18 µM
CCN(CC)CCCNc1nc2c(c3ccccc13)S(=O)(=O)c1ncccc1-2 [7ag, 5-((3-(Diethylamino)propyl)amino)pyrido[3′,2′:4,5] thieno[3,2-c]isoquinoline 11,11-dioxide]	57.8 ± 0.65 µM	30 ± 0.31 µM	26.9 ± 0.72 µM	22.5 ± 1.84 µM	24.37 ± 0.18 µM	75.8 ± 2.79 µM	–	nicked DNA could be clearly observed	–	–	–	–	–	–
CCN(CC)CCNc1nc2c(c3ccccc13)S(=O)(=O)c1nc(C)cc(C)c1-2 [7bb, 5-((2-(Diethylamino)ethyl)amino)-7,9-dimethylpyrido[3′,2′:4,5]thieno[3,2-c]isoquinoline 11,11-dioxide]	7.68 ± 0.88 µM	7.54 ± 2.07 µM	5.66 ± 0.54 µM	4.89 ± 2.41 µM	6.02 ± 1.59 µM	3.57 ± 0.35 µM	weak Topo I activity	–	–	–	–	–	–	–
CCN(CC)CCCNc1nc2c(c3ccccc13)S(=O)(=O)c1nc(C)cc(C)c1-2 [7bg, 5-((3-(Diethylamino)propyl)amino)-7,9-dimethyl-pyrido[3′,2′:4,5]thieno[3,2-c]isoquinoline 11,11-dioxide]	6.92 ± 2.01 µM	6.54 ± 0.52 µM	6.89 ± 2.86 µM	6.35 ± 3.28 µM	6.23 ± 1.96 µM	4.38 ± 0.46 µM	weak Topo I activity	–	–	–	–	–	–	–
Cc1cc(C)c2c(n1)S(=O)(=O)c1c-2nc(NCCCN2CCOCC2)c2ccccc12 [7bi, 7,9-Dimethyl-5-((3-morpholinopropyl)amino)-pyrido[3′,2′:4,5]thieno[3,2-c]isoquinoline 11,11-dioxide]	73.68 ± 0.67 µM	80.5 ± 2.44 µM	> 100 µM	20.3 ± 2.89 µM	> 100 µM	87.4 ± 2.65 µM	weak Topo I activity	–	–	–	–	–	–	–
Cc1cc(C)c2c(n1)S(=O)(=O)c1c-2nc(NCCN(C)C)c2ccccc12 [7ba, 5-((2-(Dimethylamino)ethyl)amino)-7,9-dimethylpyrido[3′,2′:4,5]thieno[3,2-c]isoquinoline 11,11-dioxide]	6.68 ± 1.5 µM	7.03 ± 1.95 µM	4.59 ± 1.68 µM	4.99 ± 2 µM	6.33 ± 0.75 µM	4.66 ± 1.69 µM	potent Topo I activity	–	–	–	–	–	–	–
Cc1cc(C)c2c(n1)S(=O)(=O)c1c-2nc(NCCCN(C)C)c2ccccc12 [7bf, 5-((3-(Dimethylamino)propyl)amino)-7,9-dimethylpyrido[3′,2′:4,5]thieno[3,2-c]isoquinoline 11,11-dioxide]	5.07 ± 1.92 µM	6.25 ± 2.23 µM	6.67 ± 1.49 µM	5.2 ± 1.2 µM	8.44 ± 2.86 µM	5.14 ± 1.55 µM	potent Topo I activity; also recorded: weak Topo I activity	–	–	–	–	–	–	–
Cc1cc(C)c2c(n1)S(=O)(=O)c1c-2nc(NCCN2CCCC2)c2ccccc12 [7bc, 7,9-Dimethyl-5-((2-(pyrrolidin-1-yl)ethyl)amino) pyrido[3′,2′:4,5]thieno[3,2-c]isoquinoline 11,11-dioxide]	9.57 ± 2.07 µM	5.47 ± 0.82 µM	6.41 ± 1.41 µM	3.36 ± 0.83 µM	6.44 ± 0.76 µM	8.17 ± 3.36 µM	potent Topo I activity	–	–	–	–	–	–	–
O=S1(=O)c2ncccc2-c2nc(NCCCN3CCCC3)c3ccccc3c21 [7ah, 5-((3-(Pyrrolidin-1-yl)propyl)amino)pyrido[3′,2′:4,5] thieno[3,2-c]isoquinoline 11,11-dioxide]	42.7 ± 2.28 µM	27.7 ± 1.49 µM	13 ± 1.24 µM	23.1 ± 2.48 µM	19.5 ± 0.87 µM	> 100 µM	–	nicked DNA could be clearly observed	–	–	–	–	–	–
O=S1(=O)c2ncccc2-c2nc(NCCN3CCCC3)c3ccccc3c21 [7ac, 5-((2-(Pyrrolidin-1-yl)ethyl)amino)pyrido[3′,2′:4,5] thieno[3,2-c]isoquinoline 11,11-dioxide]	12 ± 4.2 µM	9.69 ± 2.08 µM	16.9 ± 3.27 µM	14.6 ± 2.12 µM	15.2 ± 3.41 µM	14.2 ± 2.77 µM	–	nicked DNA could be clearly observed	–	–	–	–	–	–
NCCCNc1nc2c(c3ccccc13)S(=O)(=O)c1ncccc1-2 [7ak, 5-((3-Aminopropyl)amino)pyrido[3′,2′:4,5]thieno[3,2-c]isoquinoline 11,11-dioxide]	56.6 ± 3.25 µM	52 ± 1.49 µM	7.94 ± 3.26 µM	10.6 ± 1.32 µM	10.2 ± 1.61 µM	> 100 µM	–	nicked DNA could be clearly observed	–	–	–	–	–	–
